The record followed here is ChEMBL document CHEMBL5154892, “Structure-Based Optimization and Characterization of Macrocyclic Zika Virus NS2B-NS3 Protease Inhibitors” (J Med Chem, 2022).

The source made the active and inactive calls. The calls are words filed in the database; no cut-off is given here. *1 amine or outer side, *2 acyl side, *3 side chain or, on linkers, in order; H or OH if unused. Where a SMILES comes first, the peptide text is derived from it. [ ]: non-standard residue; d: D form. X2 = N=C(N)N[C@H](CCOCN[*:1])C(=O)[*:2]; X3 = O=C([C@@H](CN[*:1])Cc1ccccc1)[*:2]; X1 = O=C([C@H](CN[*:1])Cc1ccccc1)[*:2]; NMeβAla = CN(CCC(=O)[*:2])[*:1]; βAla = NCCC(=O)O; Sar = CNCC(=O)O

Series [1] can be described thus: Binding affinity to Zika virus NS2B-NS3 protease using Phac-Leu-Lys-Lys-Arg-AMC as substrate measured immediately upto 10 mins by fluorogenic assay.
A short description of series [2]: Binding affinity to West Nile virus NSB2 (52 to 96 amino acids)-NS3 (1 to 184 amino acids) protease using Phac-Leu-Lys-Lys-Arg-AMC as substrate measured immediately upto 10 mins by fluorogenic assay.
In series [3] the test system is A549. Description: Cytotoxicity against human A549 cells assessed as cell viability upto 80 uM and measured after 24 to 48 hrs by PrestoBlue dye based microplate reader analysis. The class given is toxicity. The following applies: a549, 80 µM, time 24-48 hrs.
Series [4] has as its system Zika virus. Description: Antiviral activity against Zika virus infected in human A549 cells assessed as reduction in luciferase activity at 20 uM measured up to 48 hrs post infection by luciferase assay. The class given is functional, organism-based.
The target in a further series is Prothrombin (Bos taurus) (UniProt P00735). Description: Inhibition of bovine thrombin at 100 uM using Tos-Gly-Pro-Arg-AMC as substrate by fluorescence plate reader analysis.
Another series addresses Trypsin (Sus scrofa) (UniProt P00761). Description: Inhibition of porcine trypsin at 100 uM using Mes-D-Arg-Gly-Arg-AMC a substrate by fluorescence plate reader analysis.
The test system of series [5] is Zika virus. Description: Antiviral activity against ZIKV H/PF/2013 infected in human A549 cells assessed as reduction in extracellular virus titer in cell supernatant at 80 uM measured after 24 hrs post infection by plaque assay based crystal violet staining analysis. The class given is functional, organism-based.
Series [6] has as its system Zika virus. Description: Antiviral activity against ZIKV H/PF/2013 infected in human A549 cells assessed as reduction in number of infected cells at 80 uM measured after 24 hrs post infection by immunofluorescence microscopic analysis relative to control. The class given is functional, organism-based.
The subject of series [7] is Zika virus. Description: Antiviral activity against ZIKV H/PF/2013 infected in human A549 cells assessed as reduction in extracellular virus titer in cell supernatant at 80 uM measured after 48 hrs post infection by plaque assay based crystal violet staining analysis. The class given is functional, organism-based.
The subject of series [8] is Zika virus. Description: Antiviral activity against ZIKV H/PF/2013 infected in human A549 cells assessed as reduction in intracellular virus titer at 80 uM measured after 48 hrs post infection by plaque assay based crystal violet staining analysis. The class given is functional, organism-based.
Series [9] deals with A549. Description: Cytotoxicity against human A549 cells assessed as cell viability at 2.5 to 160 uM measured after 24 to 48 hrs by PrestoBlue dye based microplate reader analysis. The conditions noted are these: a549, 160 µM, dose lower 2.5 µM, time lower 24 hrs, dose upper 160 µM, time upper 48 hrs. Type of series: toxicity.

Sequence of Trypsin (Sus scrofa) (P00761 whole entry): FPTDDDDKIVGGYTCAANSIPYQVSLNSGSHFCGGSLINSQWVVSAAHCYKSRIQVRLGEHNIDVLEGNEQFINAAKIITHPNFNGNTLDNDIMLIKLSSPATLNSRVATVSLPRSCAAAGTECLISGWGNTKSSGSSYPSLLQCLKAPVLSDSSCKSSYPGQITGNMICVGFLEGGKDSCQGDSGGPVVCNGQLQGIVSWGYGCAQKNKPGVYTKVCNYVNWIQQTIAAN

For orientation: Ki means a dissociation constant, usually derived from enzyme kinetics or from competition with a known ligand. Low readings indicate higher affinity, high ones lower affinity. As to `N=C(N)N[C@@H]1CCOCNC(=O)[C@H](CCCCN)NC(=O)[C@H](CCCCN)NC(=O)CNC(=O)Cc2cccc(c2)CNC1=O`, the figures for the Ki in series [1] and in series [2] were 41.2 nM and 1760 nM, respectively.
The matching figures for `N=C(N)N[C@@H]1CCOCNC(=O)[C@H](CCCCN)NC(=O)[C@H](CCCCN)NC(=O)[C@H](Cc2ccccc2)NC(=O)CNC(=O)CNC1=O`: 31.9 nM and 657 nM.
The inhibition is the change of the read-out against control, counted positive when it falls. Low readings indicate a response near the control, high ones a response far below the control. As to `N=C(N)N[C@@H]1CCOCNC(=O)[C@H](CCCCN)NC(=O)[C@H](CCCCN)NC(=O)CCNC(=O)CNC(=O)CNC1=O` (cyclo(GG[βAla]KK[X2])), the Activity entry with A549 [3] is listed as “Non-Toxic”. Besides, the result in the series on Zika virus [4] was Active. In addition, the inhibition against Prothrombin (Bos taurus) was below 30%; at Trypsin (Sus scrofa) it was below 10%.
As to `CN1CC(=O)NCCC(=O)N[C@@H](CCCCN)C(=O)N[C@@H](CCCCN)C(=O)NCOCC[C@@H](NC(=N)N)C(=O)NCC1=O` (cyclo(G[Sar][βAla]KK[X2])), the Ki in series [1] is 333 nM; in [2], 30700 nM.
In the same order, the values of `N=C(N)N[C@@H]1CCOCNC(=O)[C@H](CCCCN)NC(=O)[C@H](CCCCN)NC(=O)[C@@H](Cc2ccccc2)NC(=O)CNC(=O)CNC1=O` (racemic) are 139 nM and 17300 nM.
In the same order, the values of `CC(C)[C@@H]1NC(=O)CCNC(=O)CNC(=O)[C@H](NC(=N)N)CCOCNC(=O)[C@H](CCCCN)NC(=O)[C@H](CCCCN)NC1=O` are 340 nM and 39700 nM.
In the same order, the values of `C[C@H]1NC(=O)CCNC(=O)CNC(=O)[C@H](NC(=N)N)CCOCNC(=O)[C@H](CCCCN)NC(=O)[C@H](CCCCN)NC1=O` are 5.62 nM and 1430 nM.
Regarding `CC(C)C[C@@H]1NC(=O)CCNC(=O)CNC(=O)[C@H](NC(=N)N)CCOCNC(=O)[C@H](CCCCN)NC(=O)[C@H](CCCCN)NC1=O`, the Ki in [1] came out at 124 nM; in [2], 10300 nM.
On to `N=C(N)N[C@@H]1CCOCNC(=O)[C@H](CCCCN)NC(=O)[C@H](CCCCN)NC(=O)Cc2cccc(c2)CNC(=O)CNC1=O`, for which the Activity result in the series with A549 [3] is recorded as “Non-Toxic”. Moreover, the result with Zika virus [4] and in the series on Zika virus [5] was Active. Moreover, the inhibition is below 30% on Prothrombin (Bos taurus) and below 10% at Trypsin (Sus scrofa).
As to `N=C(N)N[C@@H]1CCOCNC(=O)[C@H](CCCCN)NC(=O)[C@H](CCCCN)NC(=O)[C@@H](CCc2ccccc2)NC(=O)CCNC(=O)CNC1=O`, the Ki in [1] came out at 10.3 nM; in series [2], 1290 nM.
For `N=C(N)N[C@@H]1CCOCNC(=O)[C@H](CCCCN)NC(=O)[C@H](CCCCN)NC(=O)Cc2cccc(c2)CNC(=O)[C@@H](CCC2CCCCC2)NC1=O.O=C(O)C(F)(F)F`, the result with Zika virus [6], in the series on Zika virus [4], in the series with Zika virus [5], in the series with Zika virus [7] and in the series on Zika virus [8] was Active. In the series on A549 [3], the Activity entry was “Non-Toxic”. The inhibition was below 30% against Prothrombin (Bos taurus) and below 10% against Trypsin (Sus scrofa). Also, the Ki in [1] worked out at 2.33 nM; in series [2], 219 nM.
Consider `N=C(N)N[C@@H]1CCOCNC(=O)[C@H](CCCCN)NC(=O)[C@H](CCCCN)NC(=O)Cc2cccc(c2)CNC(=O)[C@@H](CCc2ccccc2)NC1=O`, for which the Ki worked out at 6.02 nM in series [1] and 331 nM in series [2].
With `N=C(N)N[C@@H]1CCOCNC(=O)[C@H](CCCCN)NC(=O)[C@H](CCCCN)NC(=O)[C@@H](c2ccccc2)NC(=O)CCNC(=O)CNC1=O`, the figures for the inhibition against Prothrombin (Bos taurus) and at Trypsin (Sus scrofa) were 55% and 33%, respectively. The results for the Ki in [1] and in series [2] were 4.84 nM and 371 nM, respectively.
Regarding `C[C@@H]1NC(=O)CCNC(=O)CNC(=O)[C@H](NC(=N)N)CCOCNC(=O)[C@H](CCCCN)NC(=O)[C@H](CCCCN)NC1=O`, the Ki in [1] came out at 75 nM; in series [2], 7760 nM.
The matching figures for `N=C(N)N[C@@H]1CCOCNC(=O)[C@H](CCCCN)NC(=O)[C@H](CCCCN)NC(=O)[C@H]2CCCN2C(=O)CCNC(=O)CNC1=O`: 21 nM and 2590 nM.
As to `CC(C)C[C@H]1NC(=O)CCNC(=O)CNC(=O)[C@H](NC(=N)N)CCOCNC(=O)[C@H](CCCCN)NC(=O)[C@H](CCCCN)NC1=O`, the Ki in series [1] worked out at 4.3 nM; in series [2], 1030 nM.
The matching figures for `N=C(N)N[C@@H]1CCOCNC(=O)[C@H](CCCCN)NC(=O)[C@H](CCCCN)NC(=O)[C@H](Cc2ccccc2)CNC(=O)CNC(=O)CNC1=O` (cyclo(GG[X3]KK[X2])): 86 nM and 6490 nM.
Take `CCCC[C@H]1NC(=O)CCNC(=O)CNC(=O)[C@H](NC(=N)N)CCOCNC(=O)[C@H](CCCCN)NC(=O)[C@H](CCCCN)NC1=O`: the Ki in series [1] came out at 4.94 nM; in series [2] it was 892 nM.
For `N=C(N)N[C@@H]1CCOCNC(=O)[C@H](CCCCN)NC(=O)[C@H](CCCCN)NC(=O)Cc2cccc(c2)CNC(=O)[C@@H](Cc2ccccc2)NC1=O`, the Ki stood at 5.34 nM in [1] and 693 nM in series [2].
Consider `N=C(N)N[C@@H]1CCOCNC(=O)[C@H](CCCCN)NC(=O)[C@H](CCCCN)NC(=O)[C@@H](CC2CCCCC2)NC(=O)CCNC(=O)CNC1=O`, for which the inhibition is below 30% against Prothrombin (Bos taurus) and below 10% at Trypsin (Sus scrofa). Besides, the Ki came to 6.94 nM in series [1] and 735 nM in [2].
As to `N=C(N)N[C@@H]1CCOCNC(=O)[C@H](CCCCN)NC(=O)[C@H](CCCCN)NC(=O)CCNC(=O)Cc2cccc(c2)CNC1=O`, the Ki in series [1] came to 81.4 nM; in [2] it was 56500 nM.
The matching figures for `CN1CC(=O)NCC(=O)NCCC(=O)N[C@@H](CCCCN)C(=O)N[C@@H](CCCCN)C(=O)NCOCC[C@@H](NC(=N)N)C1=O` (cyclo(G[βAla]KK[X2][Sar])): 332 nM and 30500 nM.
As for `CN1CCC(=O)N[C@@H](CCCCN)C(=O)N[C@@H](CCCCN)C(=O)NCOCC[C@@H](NC(=N)N)C(=O)NCC(=O)NCC1=O` (cyclo(GG[NMeβAla]KK[X2])), the figures for the Ki in series [1] and in [2] were 490 nM and 36900 nM, respectively.
Regarding `N=C(N)N[C@@H]1CCOCNC(=O)[C@H](CCCCN)NC(=O)[C@H](CCCCN)NC(=O)[C@@H](Cc2ccccc2)NC(=O)CCNC(=O)CNC1=O.O=C(O)C(F)(F)F`, the result in the series with Zika virus [4] was Active. Further, the inhibition on Prothrombin (Bos taurus) was below 30%; against Trypsin (Sus scrofa) it was below 10%. Also, the Ki in [1] worked out at 3.06 nM; in series [2], 1920 nM. Besides, in the series on A549 [9], the Activity entry is on record as “Toxic”.
In the case of `CC(C)[C@H]1NC(=O)[C@H](NC(=N)N)CCOCNC(=O)[C@H](CCCCN)NC(=O)[C@H](CCCCN)NC(=O)Cc2cccc(c2)CNC1=O`, the Ki was 7.74 nM in series [1] and 439 nM in [2].
For `N=C(N)N[C@@H]1CCOCNC(=O)[C@H](CCCCN)NC(=O)[C@H](CCCCN)NC(=O)[C@@H](Cc2ccccc2)CNC(=O)CNC(=O)CNC1=O` (cyclo(GG[X1]KK[X2])), the figures for the inhibition on Prothrombin (Bos taurus) and on Trypsin (Sus scrofa) were below 30% and below 10%, respectively. The results for the Ki in series [1] and in series [2] were 63 nM and 14800 nM, respectively.
As for `CC(C)[C@H]1NC(=O)CCNC(=O)CNC(=O)[C@H](NC(=N)N)CCOCNC(=O)[C@H](CCCCN)NC(=O)[C@H](CCCCN)NC1=O.O=C(O)C(F)(F)F`, the Activity result with A549 [3] is given as “Non-Toxic”. Besides, the Ki in [1] was 8.26 nM; in [2], 1680 nM.
`N=C(N)N[C@@H]1CCOCNC(=O)[C@H](CCCCN)NC(=O)[C@H](CCCCN)NC(=O)Cc2cccc(c2)CNC(=O)[C@@H](CC2CCCCC2)NC1=O`: the figures for the inhibition on Prothrombin (Bos taurus) and on Trypsin (Sus scrofa) were below 30% and below 10%, respectively. In addition, the figures for the Ki in series [1] and in [2] were 3.59 nM and 395 nM, respectively.
As for `C[C@@H]1NC(=O)CNC(=O)CNC(=O)[C@H](NC(=N)N)CCOCNC(=O)[C@H](CCCCN)NC(=O)[C@H](CCCCN)NC1=O`, the Ki in series [1] was found to be 92.2 nM; in series [2], 1170 nM.
The matching figures for `C[C@H]1NC(=O)CNC(=O)CNC(=O)[C@H](NC(=N)N)CCOCNC(=O)[C@H](CCCCN)NC(=O)[C@H](CCCCN)NC1=O`: 187 nM and 6970 nM.
With `CC(C)C[C@H]1NC(=O)[C@H](NC(=N)N)CCOCNC(=O)[C@H](CCCCN)NC(=O)[C@H](CCCCN)NC(=O)Cc2cccc(c2)CNC1=O`, the results for the inhibition at Prothrombin (Bos taurus) and against Trypsin (Sus scrofa) were below 30% and below 10%, respectively. Besides, the Ki in series [1] is 9.53 nM; in series [2], 276 nM.
